Source: ChEMBL document CHEMBL1201862, “PubChem BioAssay data set” (2004)
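Cultured in 96-well plates, cells were exposed to test compound for 48 hours across five concentrations. Here, GI50 denotes the concentration required for 50% inhibition of growth.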 The source made the active and inactive calls. No stated cut-off is given here; in the data, active = GI50 up to about 1.1 µM and inactive = higher.

Key:
Experiment in all cases: NCI-60 cell line screen, 48 h
786-0 = tested on: 786-0
A498 = tested on: A498
A549 = tested on: A549
ACHN = tested on: ACHN
BT-549 = tested on: BT-549
CAKI-1 = tested on: CAKI-1
CCRF-CEM = tested on: CCRF-CEM
COLO 205 = tested on: COLO 205
DU-145 = tested on: DU-145
EKVX = tested on: EKVX
HCC 2998 = tested on: HCC 2998
HCT-116 = tested on: HCT-116
HCT-15 = tested on: HCT-15
HL-60 = tested on: HL-60
HOP-62 = tested on: HOP-62
HT-29 = tested on: HT-29
Hs-578T = tested on: Hs-578T
IGROV-1 = tested on: IGROV-1
K562 = tested on: K562
KM12 = tested on: KM12
LOX IMVI = tested on: LOX IMVI
M14 = tested on: M14
MCF7 = tested on: MCF7
MDA-MB-231 = tested on: MDA-MB-231
MDA-MB-435 = tested on: MDA-MB-435
MDA-N = tested on: MDA-N
MOLT-4 = tested on: MOLT-4
Malme-3M = tested on: Malme-3M
NCI-H226 = tested on: NCI-H226
NCI-H23 = tested on: NCI-H23
NCI-H460 = tested on: NCI-H460
NCI/ADR-RES = tested on: NCI/ADR-RES
OVCAR-3 = tested on: OVCAR-3
OVCAR-4 = tested on: OVCAR-4
OVCAR-5 = tested on: OVCAR-5
OVCAR-8 = tested on: OVCAR-8
PC-3 = tested on: PC-3
RPMI-8226 = tested on: RPMI-8226
RXF 393 = tested on: RXF 393
SF-268 = tested on: SF-268
SF-295 = tested on: SF-295
SF-539 = tested on: SF-539
SK-MEL-28 = tested on: SK-MEL-28
SK-MEL-2 = tested on: SK-MEL-2
SK-MEL-5 = tested on: SK-MEL-5
SK-OV-3 = tested on: SK-OV-3
SN12C = tested on: SN12C
SNB-19 = tested on: SNB-19
SNB-75 = tested on: SNB-75
SW-620 = tested on: SW-620
T47D = tested on: T47D
TK-10 = tested on: TK-10
U-251 = tested on: U-251
UACC-257 = tested on: UACC-257
UACC-62 = tested on: UACC-62
UO-31 = tested on: UO-31
HOP-92 = tested on: HOP-92
NCI-H522 = tested on: NCI-H522

SMILES: CCN1CC(C)Cn2c(=O)[nH]c3cc(Br)cc1c32 (stereo unspecified)
- GI50 (786-0): 22.6 µM (inactive)
- GI50 (A498): 16.9 µM (inactive)
- GI50 (A549): 25.6 µM (inactive)
- GI50 (ACHN): 13.1 µM (inactive)
- GI50 (BT-549): 4.1 µM (inactive)
- GI50 (CAKI-1): 13.9 µM (inactive)
- GI50 (CCRF-CEM): 7.67 µM (inactive)
- GI50 (COLO 205): 11 µM (inactive)
- GI50 (DU-145): 48.8 µM (inactive)
- GI50 (EKVX): 3.3 µM (inactive)
- GI50 (HCC 2998): 32.8 µM (inactive)
- GI50 (HCT-116): 29.9 µM (inactive)
- GI50 (HCT-15): 14.6 µM
- GI50 (HL-60): 7.19 µM (inactive)
- GI50 (HOP-62): 30.5 µM (inactive)
- GI50 (HT-29): 33.5 µM (inactive)
- GI50 (Hs-578T): 11 µM (inactive)
- GI50 (IGROV-1): 18.5 µM (inactive)
- GI50 (K562): 2.91 µM (inactive)
- GI50 (KM12): 22.9 µM (inactive)
- GI50 (LOX IMVI): 21.4 µM (inactive)
- GI50 (M14): 34.1 µM (inactive)
- GI50 (MCF7): 17.3 µM (inactive)
- GI50 (MDA-MB-231): 22.4 µM (inactive)
- GI50 (MDA-MB-435): 2.75 µM (inactive)
- GI50 (MDA-N): 4.81 µM (inactive)
- GI50 (MOLT-4): 3.05 µM (inactive)
- GI50 (Malme-3M): 64.4 µM (inactive)
- GI50 (NCI-H226): 11.9 µM (inactive)
- GI50 (NCI-H23): 36.8 µM (inactive)
- GI50 (NCI-H460): 30.6 µM (inactive)
- GI50 (NCI/ADR-RES): 8.05 µM (inactive)
- GI50 (OVCAR-3): 20.3 µM (inactive)
- GI50 (OVCAR-4): 12.1 µM (inactive)
- GI50 (OVCAR-5): 70.5 µM (inactive)
- GI50 (OVCAR-8): 23.7 µM (inactive)
- GI50 (PC-3): 30.9 µM (inactive)
- GI50 (RPMI-8226): 1.79 µM (inactive)
- GI50 (RXF 393): 6.9 µM (inactive)
- GI50 (SF-268): 10.9 µM (inactive)
- GI50 (SF-295): 21.1 µM (inactive)
- GI50 (SF-539): 29.8 µM (inactive)
- GI50 (SK-MEL-28): 35.7 µM (inactive)
- GI50 (SK-MEL-2): 23.9 µM (inactive)
- GI50 (SK-MEL-5): 19.1 µM (inactive)
- GI50 (SK-OV-3): 27.7 µM (inactive)
- GI50 (SN12C): 44.7 µM (inactive)
- GI50 (SNB-19): 26.4 µM (inactive)
- GI50 (SNB-75): 11.4 µM (inactive)
- GI50 (SW-620): 5.01 µM (inactive)
- GI50 (T47D): 18.5 µM (inactive)
- GI50 (TK-10): 25 µM (inactive)
- GI50 (U-251): 24 µM (inactive)
- GI50 (UACC-257): 76 µM (inactive)
- GI50 (UACC-62): 6.97 µM (inactive)
- GI50 (UO-31): 40.1 µM (inactive)

SMILES: C=CC(=C)CCC(Br)C(C)(C)Cl (stereo unspecified)
- GI50 (786-0): > 100 µM (inactive)
- GI50 (A549): > 100 µM (inactive)
- GI50 (ACHN): > 100 µM (inactive)
- GI50 (BT-549): > 100 µM (inactive)
- GI50 (CCRF-CEM): 87.5 µM (inactive)
- GI50 (COLO 205): > 100 µM (inactive)
- GI50 (DU-145): > 100 µM (inactive)
- GI50 (EKVX): > 100 µM (inactive)
- GI50 (HCC 2998): > 100 µM (inactive)
- GI50 (HCT-116): > 100 µM (inactive)
- GI50 (HCT-15): > 100 µM
- GI50 (HL-60): 37.1 µM (inactive)
- GI50 (HOP-62): > 100 µM (inactive)
- GI50 (HOP-92): > 100 µM (inactive)
- GI50 (HT-29): > 100 µM (inactive)
- GI50 (Hs-578T): > 100 µM (inactive)
- GI50 (IGROV-1): > 100 µM (inactive)
- GI50 (K562): > 100 µM (inactive)
- GI50 (KM12): > 100 µM (inactive)
- GI50 (M14): > 100 µM (inactive)
- GI50 (MCF7): 46.6 µM (inactive)
- GI50 (MDA-MB-231): > 100 µM (inactive)
- GI50 (MDA-MB-435): > 100 µM (inactive)
- GI50 (MDA-N): > 100 µM (inactive)
- GI50 (MOLT-4): 85.1 µM (inactive)
- GI50 (Malme-3M): > 100 µM (inactive)
- GI50 (NCI-H226): > 100 µM (inactive)
- GI50 (NCI-H23): > 100 µM (inactive)
- GI50 (NCI-H460): > 100 µM (inactive)
- GI50 (NCI-H522): 24.3 µM (inactive)
- GI50 (NCI/ADR-RES): > 100 µM (inactive)
- GI50 (OVCAR-3): > 100 µM (inactive)
- GI50 (OVCAR-4): > 100 µM (inactive)
- GI50 (OVCAR-5): > 100 µM (inactive)
- GI50 (OVCAR-8): > 100 µM (inactive)
- GI50 (PC-3): > 100 µM (inactive)
- GI50 (RPMI-8226): > 100 µM (inactive)
- GI50 (RXF 393): > 100 µM (inactive)
- GI50 (SF-268): > 100 µM (inactive)
- GI50 (SF-295): > 100 µM (inactive)
- GI50 (SF-539): > 100 µM (inactive)
- GI50 (SK-MEL-28): > 100 µM (inactive)
- GI50 (SK-MEL-2): > 100 µM (inactive)
- GI50 (SK-MEL-5): > 100 µM (inactive)
- GI50 (SK-OV-3): > 100 µM (inactive)
- GI50 (SN12C): > 100 µM (inactive)
- GI50 (SNB-19): > 100 µM (inactive)
- GI50 (SNB-75): > 100 µM (inactive)
- GI50 (SW-620): > 100 µM (inactive)
- GI50 (T47D): > 100 µM (inactive)
- GI50 (TK-10): > 100 µM (inactive)
- GI50 (U-251): > 100 µM (inactive)
- GI50 (UACC-257): > 100 µM (inactive)
- GI50 (UACC-62): > 100 µM (inactive)
- GI50 (UO-31): > 100 µM (inactive)

SMILES: Nc1ncnc2c1cnn2Cc1cn(COCC(O)CO)nn1 (stereo unspecified)
- GI50 (786-0): > 100 µM (inactive)
- GI50 (A498): > 100 µM (inactive)
- GI50 (A549): > 100 µM (inactive)
- GI50 (ACHN): > 100 µM (inactive)
- GI50 (BT-549): > 100 µM (inactive)
- GI50 (CAKI-1): > 100 µM (inactive)
- GI50 (CCRF-CEM): > 100 µM (inactive)
- GI50 (COLO 205): > 100 µM (inactive)
- GI50 (DU-145): > 100 µM (inactive)
- GI50 (EKVX): > 100 µM (inactive)
- GI50 (HCC 2998): > 100 µM (inactive)
- GI50 (HCT-116): > 100 µM (inactive)
- GI50 (HCT-15): > 100 µM
- GI50 (HL-60): > 100 µM (inactive)
- GI50 (HOP-62): > 100 µM (inactive)
- GI50 (HOP-92): > 100 µM (inactive)
- GI50 (HT-29): > 100 µM (inactive)
- GI50 (Hs-578T): 14.4 µM (inactive)
- GI50 (IGROV-1): > 100 µM (inactive)
- GI50 (KM12): > 100 µM (inactive)
- GI50 (LOX IMVI): > 100 µM (inactive)
- GI50 (M14): > 100 µM (inactive)
- GI50 (MCF7): > 100 µM (inactive)
- GI50 (MDA-MB-231): > 100 µM (inactive)
- GI50 (MDA-MB-435): > 100 µM (inactive)
- GI50 (MDA-N): > 100 µM (inactive)
- GI50 (NCI-H23): > 100 µM (inactive)
- GI50 (NCI-H522): 16.1 µM (inactive)
- GI50 (NCI/ADR-RES): > 100 µM (inactive)
- GI50 (OVCAR-3): > 100 µM (inactive)
- GI50 (OVCAR-4): > 100 µM (inactive)
- GI50 (OVCAR-5): > 100 µM (inactive)
- GI50 (OVCAR-8): > 100 µM (inactive)
- GI50 (PC-3): > 100 µM (inactive)
- GI50 (SF-268): 18.1 µM (inactive)
- GI50 (SF-295): > 100 µM (inactive)
- GI50 (SF-539): > 100 µM (inactive)
- GI50 (SK-MEL-28): > 100 µM (inactive)
- GI50 (SK-MEL-2): > 100 µM (inactive)
- GI50 (SK-MEL-5): > 100 µM (inactive)
- GI50 (SK-OV-3): > 100 µM (inactive)
- GI50 (SN12C): > 100 µM (inactive)
- GI50 (SNB-19): > 100 µM (inactive)
- GI50 (SW-620): > 100 µM (inactive)
- GI50 (T47D): > 100 µM (inactive)
- GI50 (TK-10): > 100 µM (inactive)
- GI50 (U-251): > 100 µM (inactive)
- GI50 (UACC-257): > 100 µM (inactive)
- GI50 (UACC-62): > 100 µM (inactive)
- GI50 (UO-31): > 100 µM (inactive)
